Laboratory results taken from patent publication US7825110B2, “Substituted spiroheterocycles” (Janssen Pharmaceutica NV, priority 2006, dated 2010).

Assays:
[1] = target: T1, human V1a receptor (Homo sapiens, UniProt P37288); assay: In-vitro binding assay, 3H-arginine-8-vasopressin, V1a; conditions: for IC50: membrane containing human V1a receptor, displacement of H3 vasopressin; for inhibition at 0.2 µM: 0.2 μM test compound, read-out: V1a (binding), Percent inhibition at 0.2 μM
Protocol: (§1) Assay buffer is 50 mM Tris-Cl, 5 mM MgCl2, 0.1% BSA (pH 7.5) containing 5 μg/ml of aprotinin, leupeptin, pepstatin, 50 μg/ml bacitracin, and 1 mM Pefabloc (4-(2-Aminoethyl)-benzenesulfonyl fluoride, hydrochloride manufactured by Roche Diagnostics Corporation, Indianapolis, Ind. and distributed by Boehringer Mannheim). H3 vasopressin is ^3H-arginine-8-vasopressin (NEN Life Sciences, Boston, Mass.; 68.5 Ci/mmol, final concentration in assay is 0.65-0.75 nM). Into wells of 96-well round bottom polypropylene plates are added buffer, test compound, membrane (containing human V1a or V2 receptor), and H3 vasopressin. The reaction plates are allowed to sit at room temperature for one hour. The samples are filtered through Unifilter GF/C plates (PerkinElmer Life Sciences, Boston, Mass.) presoaked in […]. The plates are washed 5 times with cold physiological saline containing 0.05% Tween 20. After drying, the bottom of the filter plates
(§2) [formula] are sealed and 0.025 ml of Microscint-20 (Packard Instrument Co, Meriden, Conn.) is added to each filter. The top of the plate is sealed, and the plate is counted. Non-specific binding is determined by the addition of 1.25 μM arginine-8-vasopressin in those wells. % Inh. is calculated as follows: […]

[2] = target: T2, human V2 receptor (Homo sapiens, UniProt P30518); assay: In-vitro binding assay, 3H-arginine-8-vasopressin, V2; conditions: for inhibition at 0.2 µM: 0.2 μM test compound, read-out: V2 (binding), Percent inhibition at 0.2 μM; for IC50: membrane containing human V2 receptor, displacement of H3 vasopressin
Protocol: as §1, §2

[3] = target: T1, human V1a receptor; assay: V1a vasopressin receptor functional activity (intracellular calcium mobilization, FLIPR, V1a-HEK cells); assay type: cell-based; conditions: antagonism of vasopressin-induced calcium mobilization in V1a-HEK cells
Protocol: The V1a receptor is a G-protein coupled receptor, which upon activation triggers an increase in intracellular calcium mobilization. To evaluate compounds for their functional V1a receptor activity, HEK-293 cells were transfected with the human V1a receptor (V1a-HEK cells). HEK-293 cells were grown in DMEM (Dulbecco's modified Eagle Media) supplemented with 10% FBS and glutamine. HEK-cells were passed biweekly by trypsinization and seeded into 96 well plates at 33,000 cells per well. HEK-293 cells were transfected with human V1a receptor DNA using DMRIE-C reagent from Life Technologies (Carlsbad, Calif.). Stable lines were generated by selecting cells grown in culture media containing geneticin. After growing in Packard Clear-View black 96 well plates for 4-6 days, V1a-HEK cells were loaded with the calcium-sensitive fluorescence dye, FLUO-3 AM. Changes in intracellular calcium mobilization were measured by quantitating intracellular fluorescence using FLIPR (Fluorometric Imaging Plate Reader; Molecular Devices, Sunnyvale, Calif.). Test compounds were first added to the cells and the resulting changes in fluorescence measured to detect receptor agonistic activity. Five minutes later the cells were challenged with vasopressin to test compounds for their antagonistic activity. Receptor antagonists inhibit the ability of vasopressin to stimulate increases in intracellular fluorescence. IC50's were calculated.

[4] = target: T2, human V2 receptor; assay: V2 vasopressin receptor functional activity (cAMP accumulation, V2-HEK cells); assay type: cell-based; parameters: expressed in transfected cells; host or cells: HEK-293; conditions: block of vasopressin-stimulated cAMP accumulation in V2-HEK cells
Protocol: The V2 receptor is also a G-protein coupled receptor which when activated induces an increase in cAMP turnover. Antagonism against the V2 receptor is determined by measuring cAMP accumulation in transfected HEK-293 cells expressing the human V-2 receptor (V2-HEK cells). Compounds are tested for their ability to block the stimulatory effects of vasopressin on cAMP accumulation. The cell content of cAMP is measured by radioimmunoassay using NEN flashplates.

T2 sequence (P30518 whole entry): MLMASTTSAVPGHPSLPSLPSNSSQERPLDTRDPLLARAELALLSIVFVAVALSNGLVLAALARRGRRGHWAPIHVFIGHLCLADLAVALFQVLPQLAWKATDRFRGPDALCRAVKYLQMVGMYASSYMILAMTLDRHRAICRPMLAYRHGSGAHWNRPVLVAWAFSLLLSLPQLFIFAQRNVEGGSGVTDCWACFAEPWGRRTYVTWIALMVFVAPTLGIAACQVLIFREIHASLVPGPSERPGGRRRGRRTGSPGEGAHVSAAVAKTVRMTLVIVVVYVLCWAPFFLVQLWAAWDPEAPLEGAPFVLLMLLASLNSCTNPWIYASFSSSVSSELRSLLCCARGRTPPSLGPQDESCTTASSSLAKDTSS
T1 sequence (P37288 whole entry): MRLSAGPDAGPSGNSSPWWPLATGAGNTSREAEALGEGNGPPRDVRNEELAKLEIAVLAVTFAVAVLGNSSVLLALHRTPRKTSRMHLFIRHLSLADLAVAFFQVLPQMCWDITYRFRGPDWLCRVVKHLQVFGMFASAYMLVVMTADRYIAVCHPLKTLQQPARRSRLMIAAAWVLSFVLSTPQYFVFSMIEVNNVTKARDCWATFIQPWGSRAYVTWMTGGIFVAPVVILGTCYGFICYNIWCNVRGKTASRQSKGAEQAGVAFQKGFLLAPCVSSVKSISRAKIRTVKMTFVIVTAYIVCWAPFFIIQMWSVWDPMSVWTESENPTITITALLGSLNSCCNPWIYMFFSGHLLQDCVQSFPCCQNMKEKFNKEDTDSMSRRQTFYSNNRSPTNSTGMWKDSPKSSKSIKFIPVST

Compound	IC50 [1]	inhibition at 0.2 µM [2]	IC50 [3]	IC50 [4]	IC50 [2]	inhibition at 0.2 µM [1]
O=C(Nc1ccc(C(=O)N2CCC3(CCN(C4CCCC4)C3)Cc3ccccc32)cc1)c1ccccc1-c1ccccc1 (centres unmarked) [Compound 18]	–	70%	–	–	–	66%
COC(=O)CN1CCC2(CCN(C(=O)c3ccc(NC(=O)c4ccccc4-c4ccccc4)cc3)c3ccccc3C2)C1 (centres unmarked) [Compound 22, [1,1′-Biphenyl]-2-carboxamide, N-[4-[(2,3-dihydro-1′-acetic acid-spiro{4H-1-benzazepine-4,3′-pyrrolidin}-1(5H)-yl)carbonyl]phenyl}-, methyl ester]	–	–	0.4 µM	0.049 µM	110 nM	66%
O=C(O)CC(=O)N1CCC2(CCN(C(=O)c3ccc(NC(=O)c4ccccc4-c4ccccc4)cc3)c3ccccc3C2)C1 (centres unmarked) [Compound 26]	–	83%	–	0.272 µM	–	23%
CC(=O)N1CCC2(CCN(C(=O)c3ccc(NC(=O)c4ccccc4-c4ccccc4)cc3)c3ccccc3C2)C1 (centres unmarked) [Compound 27, [1,1′-Biphenyl]-2-carboxamide, N-[4-[(2,3-dihydro-1′-acetyl-spiro{4H-1-benzazepine-4,3′-pyrrolidin}-1(5H)-yl)carbonyl]phenyl}-]	–	78%	0.21 µM	0.182 µM	–	61%
CN(C)CC(=O)N1CCC2(CCN(C(=O)c3ccc(NC(=O)c4ccccc4-c4ccccc4)cc3)c3ccccc3C2)C1 (centres unmarked) [Compound 28, [1,1′-Biphenyl]-2-carboxamide, N-[4-[(2,3-dihydro-(1′-(2-(dimethylamino)acetyl))spiro{4H-1-benzazepine-4,3′-pyrrolidin}-1(5H)-yl)carbonyl]phenyl]-;]	260 nM	–	–	–	–	–

Further compounds by falling IC50 [4], results first:

IC50 [1]	inhibition at 0.2 µM [2]	IC50 [3]	IC50 [4]	IC50 [2]	inhibition at 0.2 µM [1]	Compound
–	58%	0.78 µM	0.673 µM	–	75%	CCOC(=O)CN1CCC2(CCN(C(=O)c3ccc(NC(=O)c4ccccc4-c4ccccc4)cc3)c3ccccc3C2)C1 (centres unmarked) [Compound 23, [1,1′-Biphenyl]-2-carboxamide, N-[4-[(2,3-dihydro-1′-acetic acid-spiro{4H-1-benzazepine-4,3′-pyrrolidin}-1(5H)-yl)carbonyl]phenyl}-, ethyl ester]
12 nM	52%	0.01 µM	0.46 µM	–	–	CN1CCCC2(CCN(C(=O)c3ccc(NC(=O)c4cc(F)ccc4Cl)cc3)c3ccccc3C2)C1 (centres unmarked) [Compound 8, Benzamide, 2-chloro-N-[4-{(2,3-dihydro-1′-methyl-spiro[4H-1-benzazepine-4,3-piperidin}-1(5H)-yl)carbonyl}phenyl]-5-fluoro]
–	77%	–	0.306 µM	–	35%	CCOC(=O)CC(=O)N1CCC2(CCN(C(=O)c3ccc(NC(=O)c4ccccc4-c4ccccc4)cc3)c3ccccc3C2)C1 (centres unmarked) [Compound 25, [1,1′-Biphenyl]-2-carboxamide, N-[4-[(2,3-dihydro-1′-pyruvic acid-spiro{4H-1-benzazepine-4,3′-pyrrolidin}-1(5H)-yl)carbonyl]phenyl}-, ethyl ester]
15 nM	–	0.08 µM	0.064 µM	29 nM	–	CN1CCCC2(CCN(C(=O)c3ccc(NC(=O)c4ccccc4-c4ccccc4)cc3)c3ccccc3C2)C1 (centres unmarked) [Compound 10, [1,1′-Biphenyl]-2-carboxamide, N-[4-[(2,3-dihydro-1′-methyl-spiro{4H-1-benzazepine-4,3′-piperidin}-1(5H)-yl)carbonyl]phenyl}-]
